Test results reported in the supplement of paper PMC5579334.
± gives the standard deviation of the averaged measurements.

Legend:
HS-PSS [1] = assay: drug sensitivity score (DSS, CellTiter-Glo viability, 72 h) (DSS (dimensionless)); higher = more sensitive; extreme values may be limits of the assay
In short: (§1)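 Viability was scored by CellTiter-Glo ATP luminescence, scaled from vehicle to positive-control wells, with duplicates averaged where present. The cells, MPNST lines and primary human Schwann cells at 750–1000 per well, sat 72 h at 37 °C, 5% CO2, in 384-well plates preprinted with each compound at five concentrations in 10-fold steps. Four-parameter logistic fits were run on the data. These fits give drug sensitivity score and relative IC50 censored at the top concentration, and percent inhibition is reported at the top concentration.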

HS-Sch-2 [2] = assay: as above
In short: as §1

[3] = system: HSC1 (primary human Schwann cells); assay: as above
In short: as §1

[4] = system: HSC2 (primary human Schwann cells); assay: as above
In short: as §1

S1507-2 [5] = assay: as above
In short: as §1

S462 [6] = assay: as above
In short: as §1

ST8814 [7] = assay: as above
In short: as §1

STS26T [8] = assay: as above
In short: as §1

YST-1 [9] = assay: as above
In short: as §1

HS-PSS [10] = assay: drug sensitivity score (DSS, CellTox-Green cytotoxicity, 72 h) (DSS (dimensionless)); higher = more cytotoxic; extreme values may be limits of the assay
In short: (§2)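 MPNST cell lines and primary human Schwann cells were incubated 72 h at 37 °C in 384-well plates holding five 10-fold compound dilutions. CellTox-Green was added before seeding at a final 1:1000 dilution and reported fluorescence from DNA released by disrupted cells. Signals were scaled to vehicle and positive-control wells, and cultures failing plate quality control were dropped. Drug sensitivity score and relative IC50 come from four-parameter logistic fits, with IC50 censored at the top concentration.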

[11] = system: HSC1 (primary human Schwann cells); assay: as above
In short: as §2

[12] = system: HSC2 (primary human Schwann cells); assay: as above
In short: as §2

S1507-2 [13] = assay: as above
In short: as §2

ST8814 [14] = assay: as above
In short: as §2

STS26T [15] = assay: as above
In short: as §2

HS-PSS [16] = assay: % inhibition of CellTiter-Glo viability at highest tested concentration (72 h), relative to DMSO and benzethonium chloride controls; higher = more inhibition
In short: as §1

HS-Sch-2 [17] = assay: as above
In short: as §1

[18] = system: HSC1 (primary human Schwann cells); assay: as above
In short: as §1

[19] = system: HSC2 (primary human Schwann cells); assay: as above
In short: as §1

S1507-2 [20] = assay: as above
In short: as §1

S462 [21] = assay: as above
In short: as §1

ST8814 [22] = assay: as above
In short: as §1

STS26T [23] = assay: as above
In short: as §1

YST-1 [24] = assay: as above
In short: as §1

Row | Structure (SMILES) | drug sensitivity score (HS-PSS [1]) | drug sensitivity score (HS-Sch-2 [2]) | drug sensitivity score [3] | drug sensitivity score [4] | drug sensitivity score (S1507-2 [5]) | drug sensitivity score (S462 [6]) | drug sensitivity score (ST8814 [7]) | drug sensitivity score (STS26T [8]) | drug sensitivity score (YST-1 [9]) | drug sensitivity score (HS-PSS [10]) | drug sensitivity score [11] | drug sensitivity score [12] | drug sensitivity score (S1507-2 [13]) | drug sensitivity score (ST8814 [14]) | drug sensitivity score (STS26T [15]) | % inhibition (HS-PSS [16]) | % inhibition (HS-Sch-2 [17]) | % inhibition [18] | % inhibition [19] | % inhibition (S1507-2 [20]) | % inhibition (S462 [21]) | % inhibition (ST8814 [22]) | % inhibition (STS26T [23]) | % inhibition (YST-1 [24])
1 | FC(F)c1nc2ccccc2n1-c1nc(N2CCOCC2)nc(N2CCOCC2)n1 [ZSTK474] (max concentration tested 10000 nM) | 3.54 | 4.18 | 8.75 | 9.9 | 13.5 ± 2.1 | 8 ± 0.68 | 8.94 | 14.6 | 15.1 | 0 | 0 | 0.497 | 0.69 ± 0.011 | 0 | 0 | 30.6% | 38.2% | 75.7% | 77.2% | 76.7 ± 9% | 59.4 ± 5% | 69.7% | 80% | 81.3%
2 | C/C(=C\c1csc(C)n1)[C@@H]1C[C@@H]2O[C@]2(C)CCC[C@H](C)[C@H](O)[C@@H](C)C(=O)C(C)(C)[C@@H](O)CC(=O)N1 [Ixabepilone] (max concentration tested 1000 nM) | 1.51 | 5.18 | 7.72 | 4.2 | 3.26 ± 0.04 | 4.444 ± 0.0091 | 3.83 | 4.72 | 3.86 | 0 | 4.19 | 3.03 | 3.15 ± 0.92 | 4.33 | 5.61 | 39.3% | 91.8% | 69.7% | 62.1% | 62.7 ± 3.3% | 84.3 ± 4% | 79.1% | 92.9% | 79%
3 | COC(=O)c1ccc2c(c1)NC(=O)/C2=C(\Nc1ccc(N(C)C(=O)CN2CCN(C)CC2)cc1)c1ccccc1 [Nintedanib] (max concentration tested 10000 nM) | 1.83 | 2.94 | 0 | 0 | 0 | 0 | 0 | 0 | 3.79 | 0.43 | 0 | 0 | 0 | 0 | 0 | 45.7% | 63.5% | 0.553% | -4.16% | -3.03 ± 4% | -7.48 ± 1.2% | 2.22% | 2.06% | 39.7%
4 | O=C(CCCCCCC(=O)Nc1ccccc1)NO [Vorinostat] (max concentration tested 10000 nM) | 4.89 | 8.6 | 9.34 | 8.25 | 9.06 ± 1.5 | 7.84 ± 1.1 | 8.9 | 6.18 | 13 | 2.31 | 2.83 | 4.21 | 7.03 ± 1.4 | 5.36 | 3.21 | 79.2% | 99.6% | 90.6% | 88.6% | 103.1 ± 0.86% | 101.1 ± 0.69% | 101% | 83.9% | 100%
5 | C=C1C[C@@H]2[C@H](CC[C@]3(C)C(=O)CC[C@@H]23)[C@@]2(C)C=CC(=O)C=C12 [Exemestane] (max concentration tested 10000 nM) | 1.87 | 0.78 | 0 | 0 | 0.225 ± 0.26 | 0.804 ± 0.28 | 0 | 0 | 0 | 0 | 0 | 0 | 0 | 0 | 0 | 26.7% | 22.9% | 3.19% | 6.18% | 12 ± 1.6% | 22.1 ± 2% | 5.32% | 9.39% | -11.7%
6 | CN(N=O)C(=O)N[C@@H]1[C@@H](O)[C@H](O)[C@@H](CO)O[C@@H]1O [Streptozocin] (max concentration tested 10000 nM) | 1.36 | 0.37 | 0 | 0 | 0 | 0 | 0 | 0 | 0.32 | 0 | 0 | 0 | 0.108 ± 0.15 | 0 | 0 | 7.67% | 15.2% | -2.68% | -3.21% | -6.55 ± 6.7% | -6.63 ± 1.8% | 6.38% | -0.477% | 9.13%
7 | CC/C(=C(\c1ccccc1)c1ccc(OCCN(C)C)cc1)c1ccccc1 [Tamoxifen] (max concentration tested 10000 nM) | 2.37 | 4.43 | 0.133 | 2.59 | 1.29 ± 0.79 | 0.757 ± 0.86 | 3.39 | 0.653 | 1.24 | 0 | 0 | 0 | 3.75 ± 4.3 | 6.84 | 0.396 | 55.4% | 61.6% | 14.8% | 52.1% | 35.2 ± 12% | 24.9 ± 13% | 65.2% | 22% | 29.6%
8 | CCCCC(=O)OCC(=O)[C@]1(O)Cc2c(O)c3c(c(O)c2[C@@H](O[C@H]2C[C@H](NC(=O)C(F)(F)F)[C@H](O)[C@H](C)O2)C1)C(=O)c1c(OC)cccc1C3=O [Valrubicin] (max concentration tested 5000 nM) | 11.7 | 14.3 | 14 | 14.1 | 10.19 ± 0.1 | 14.22 ± 0.059 | 13.6 | 13.5 | 19.3 | 0 | 0 | 0 | 0.125 ± 0.18 | 0 | 0 | 97.5% | 101% | 95.1% | 98.5% | 92.5 ± 2.8% | 94.14 ± 0.67% | 97.2% | 97.7% | 100%
9 | O=C(c1ccc(C(=O)N2CCC(N3CCCC3)CC2)c(Nc2ccccc2)c1)N1CCC(N2CCCC2)CC1 [UNC1215] (max concentration tested 30000 nM) | 0.73 | 0.38 | 0 | 0 | 0 | 0 | 0.198 | 0 | 0 | 0 | 0 | 0 | 0 | 0 | 0 | 20.4% | 15.2% | 8.9% | 5.83% | 5.34 ± 1.7% | 2.34 ± 0.36% | 13.9% | 3.37% | -5.53%
10 | CNNCc1ccc(C(=O)NC(C)C)cc1 [Procarbazine] (max concentration tested 10000 nM) | 0 | 0 | 0 | 0 | 0 | 0 | 0 | 0 | 0 | 0 | 0 | 0 | 0.135 ± 0.19 | 0 | 0 | 4.68% | -5.24% | 4.32% | 3.15% | -0.333 ± 1.2% | -14.6 ± 3.4% | 1.52% | 4.63% | 3.64%
11 | Nc1ncn([C@H]2C[C@H](O)[C@@H](CO)O2)c(=O)n1 [Decitabine] (max concentration tested 10000 nM) | 0 | 2.19 | 3.33 | 1.61 | 0.377 ± 0.53 | 4.99 ± 0.29 | 1.82 | 0.745 | 0 | 0 | 0 | 0 | 0.342 ± 0.48 | 0 | 0 | 4.62% | 27.8% | 20.3% | 27.7% | 16.3 ± 5.8% | 37.4 ± 5.4% | 18.8% | 16.2% | 4.17%
12 | CCc1cncnc1N1CCN(Cc2nc3ccc(C(F)(F)F)cc3[nH]2)CC1 (max concentration tested 10000 nM) | 4.22 | 2.07 | 0.31 | 0.531 | 0.267 ± 0.38 | 0.305 ± 0.43 | 0.171 | 1.12 | 0.69 | 0 | 0 | 0 | 0 | 0 | 0 | 64% | 47.6% | 13.9% | 21.4% | 9.77 ± 2.6% | 13.2 ± 8.4% | 13.6% | 19.7% | 22.3%
13 | C=CCc1cccc(/C=N/NC(=O)CN2CCN(Cc3ccccc3)CC2)c1O [PAC-1] (max concentration tested 10000 nM) | 6.09 | 10.1 | 6.29 | 8.57 | 2.43 ± 0.66 | 3.7 ± 0.048 | 3.36 | 3.59 | 4.81 | 2.32 | 0 | 0 | 0 | 0.202 | 0 | 84.3% | 91.1% | 75.5% | 85.9% | 52.7 ± 7.1% | 73.6 ± 1.1% | 57.7% | 54.6% | 69.4%
